The assay concerns the target human factor D (Homo sapiens (Human), UniProt P00746). Nature of the assay: biochemical. It counts as biochemical. Conditions: Factor D inhibition data using Method 1; recombinant human factor D 10 nM, substrate Z-Lys-thiobenzyl, fluorescence; read-out: IC50. An outline of the steps: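 E. coli-expressed recombinant human factor D (10 nM) was preincubated with compound for 1 h at room temperature in 0.1 M Hepes pH 7.5, 1 mM MgCl2, 1 M NaCl, 0.05% CHAPS. Fluorescence (ex 485/em 535 nm) was read after adding Z-Lys-thiobenzyl (200 μM) and 2,4-dinitrobenzenesulfonyl-fluoresceine (25 μM); IC50 came from percent inhibition versus concentration.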
Chain of human factor D (P00746 26-253): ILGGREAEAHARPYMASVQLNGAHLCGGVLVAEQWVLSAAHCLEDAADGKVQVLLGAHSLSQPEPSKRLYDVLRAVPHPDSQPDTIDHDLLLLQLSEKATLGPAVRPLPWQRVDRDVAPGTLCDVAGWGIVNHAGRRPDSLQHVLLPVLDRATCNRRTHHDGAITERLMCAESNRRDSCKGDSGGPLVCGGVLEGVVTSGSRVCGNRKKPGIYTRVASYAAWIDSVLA
`CCc1cc2c(C(N)=O)nn(CC(=O)N3[C@@H]4C[C@@H]4C[C@H]3C(=O)N[C@H](C)[C@H]3CC3(Cl)Cl)c2cn1` [Example 39, 1-(2-{(1R,3S,5R)-3-[(R)-1-((R)-2,2-Dichloro-cyclopropyl)-ethylcarbamoyl]-2-aza-bicyclo[3.1.0]hex-2-yl}-2-oxo-ethyl)-5-ethyl-1H-pyrazolo[3,4-c] pyridine-3-carboxylic acid amide]: the IC50 (commonly the midpoint of a concentration-inhibition curve) was 0.027 µM.

With `NC(=O)c1nn(CC(=O)N2[C@@H]3C[C@@H]3C[C@H]2C(=O)NC[C@H]2CC2(Cl)Cl)c2ccc(OCc3nccs3)cc12` [Example 40, 1-(2-{(1R,3S,5R)-3-[((R)-2,2-Dichloro-cyclopropylmethyl)-carbamoyl]-2-aza-bicyclo[3.1.0]hex-2-yl}-2-oxo-ethyl)-5-(thiazol-2-ylmethoxy)-1H-indazole-3-carboxylic acid amide], the IC50 is 0.007 µM. The figure for `CO[C@H]1[C@@H](C(=O)NC[C@H]2CC2(Cl)Cl)N(C(=O)Cn2nc(C(N)=O)c3ccc(Cl)cc32)C[C@@H]1F` [Example 41, 6-Chloro-1-(2-{(2S,3S,4S)-2-[((R)-2,2-dichloro-cyclopropylmethyl)-carbamoyl]-4-fluoro-3-methoxy-pyrrolidin-1-yl}-2-oxo-ethyl)-1H-indazole-3-carboxylic acid amide] is 0.051 µM; for `CO[C@H]1[C@@H](C(=O)NC[C@H]2CC2(Cl)Cl)N(C(=O)Cn2nc(C(N)=O)c3ccccc32)C[C@@H]1F` [Example 42, 1-(2-{(2S,3S,4S)-2-[((R)-2,2-Dichloro-cyclopropylmethyl)-carbamoyl]-4-fluoro-3-methoxy-pyrrolidin-1-yl}-2-oxo-ethyl)-1H-indazole-3-carboxylic acid amide] it is 0.112 µM. The same measure for `CC(=O)c1nn(CC(=O)N2[C@@H]3C[C@@H]3C[C@H]2C(=O)NC[C@H]2CC2(Cl)Cl)c2ccc(CCc3ncccn3)cc12` [Example 43, (1R,3S,5R)-2-{2-[3-Acetyl-5-(2-pyrimidin-2-yl-ethyl)-indazol-1-yl]-acetyl}-2-aza-bicyclo[3.1.0] hexane-3-carboxylic acid ((R)-2,2-dichloro-cyclopropylmethyl)-amide]: 0.071 µM; for `Cc1nccc2c(C(N)=O)nn(CC(=O)N3[C@@H]4C[C@@H]4C[C@H]3C(=O)N[C@H](C)[C@H]3CC3(Cl)Cl)c12` [Example 44, 1-(2-{(1R,3S,5R)-3-[(R)-1-((R)-2,2-Dichloro-cyclopropyl)-ethylcarbamoyl]-2-aza-bicyclo[3.1.0]hex-2-yl}-2-oxo-ethyl)-7-methyl-1H-pyrazolo[3,4-c]pyridine-3-carboxylic acid amide]: 0.041 µM. The same measure for `Cc1cc2c(C(N)=O)nn(CC(=O)N3[C@@H]4C[C@@H]4C[C@H]3C(=O)N[C@H](C)[C@H]3CC3(Cl)Cl)c2c(C)n1` [Example 45, 1-(2-{(1R,3S,5R)-3-[(R)-1-((R)-2,2-Dichloro-cyclopropyl)-ethylcarbamoyl]-2-aza-bicycio[3.1.0]hex-2-yl}-2-oxo-ethyl)-5,7-dimethyl-1H-pyrazolo[3,4-c]pyridine-3-carboxylic acid amide]: 0.043 µM.

As for `CC(=O)c1nn(CC(=O)N2[C@@H]3C[C@@H]3C[C@H]2C(=O)N[C@H](C)[C@H]2CC2(Cl)Cl)c2ccccc12` [Example 46, (1R,3S,5R)-2-[2-(3-Acetyl-indazol-1-yl)-acetyl]-2-aza-bicyclo[3.1.0]hexane-3-carboxylic acid [(R)-1-((R)-2,2-dichloro-cyclopropyl)-ethyl]-amide], the half-inhibitory concentration (IC50) turned out to be 0.012 µM. For `CC(=O)c1nn(CC(=O)N2[C@@H]3C[C@@H]3C[C@H]2C(=O)N[C@H](C)[C@H]2CC2(Cl)Cl)c2cnccc12` [Example 47, (1R,3S,5R)-2-[2-(3-Acetyl-pyrazolo[3,4-c]pyridin-1-yl)-acetyl]-2-aza-bicyclo[3.1.0] hexane-3-carboxylic acid [(R)-1-((R)-2,2-dichloro-cyclopropyl)-ethyl]-amide], the IC50 is 0.035 µM. The same measure for `CO[C@H]1[C@@H](C(=O)NC[C@H]2CC2(Cl)Cl)N(C(=O)Cn2nc(C(N)=O)c3ccc(C)cc32)C[C@@H]1F` [Example 48, 1-(2-{(2S,3S,4S)-2-[((R)-2,2-Dichloro-cyclopropylmethyl)-carbamoyl]-4-fluoro-3-methoxy-pyrrolidin-1-yl}-2-oxo-ethyl)-6-methyl-1H-indazole-3-carboxylic acid amide]: 0.027 µM.

Turning to `C[C@@H](NC(=O)[C@@H]1C[C@H]2C[C@H]2N1C(=O)Cn1nc(C(N)=O)c2ccc(Cl)cc21)[C@H]1CC1(Cl)Cl` [Example 49, 6-Chloro-1-(2-{(1R,3S,5R)-3-[(R)-1-((R)-2,2-dichloro-cyclopropyl)-ethylcarbamoyl]-2-aza-bicyclo[3.1.0]hex-2-yl}-2-oxo-ethyl)-1H-indazole-3-carboxylic acid amide], the IC50 was 0.004 µM. Regarding `NC(=O)c1nn(CC(=O)N2[C@H](C(=O)NC[C@H]3CC3(Cl)Cl)C[C@@]3(CO)C[C@@H]23)c2ccccc12` [Example 52, 1-(2-{(1R,3S,5S)-3-[((R)-2,2-Dichloro-cyclopropylmethyl)-carbamoyl]-5-hydroxymethyl-2-aza-bicyclo[3.1.0]hex-2-yl}-2-oxo-ethyl)-1H-indazole-3-carboxylic acid amide], the IC50 amounted to 0.056 µM.

For the molecule `C[C@@H](NC(=O)[C@@H]1C[C@H]2C[C@H]2N1C(=O)Cn1nc(C(N)=O)c2ccccc21)C1CCCCC1` [Example 54, 1-{2-[(1R,3S,5R)-3-((R)-1-Cyclohexyl-ethylcarbamoyl)-2-aza-bicyclo[3.1.0]hex-2-yl]-2-oxo-ethyl}-1H-indazole-3-carboxylic acid amide], the IC50 came to 0.064 µM. Consider `C[C@@H](NC(=O)[C@@H]1C[C@H]2C[C@H]2N1C(=O)Cn1nc(C(N)=O)c2ccncc21)C1CCCCC1` [Example 55, 1-{2-[(1R,3S,5R)-3-((R)-1-Cyclohexyl-ethylcarbamoyl)-2-aza-bicyclo[3.1.0]hex-2-yl]-2-oxo-ethyl}-1H-pyrazolo[3,4-c]pyridine-3-carboxylic acid amide], for which the IC50 is 0.158 µM. The figure for `CC(=O)c1nn(CC(=O)N2[C@@H]3C[C@@H]3C[C@H]2C(=O)NC[C@H]2CC2(Cl)Cl)c2ccc(OCc3nccc(C)n3)cc12` [Example 56, (1R,3S,5R)-2-{2-[3-Acetyl-5-(4-methyl-pyrimidin-2-ylmethoxy)-indazol-1-yl]-acetyl}-2-aza-bicyclo[3.1.0]hexane-3-carboxylic acid ((R)-2,2-dichloro-cyclopropylmethyl)-amide] is 0.008 µM; for `C[C@@H](NC(=O)[C@@H]1C[C@@]2(CO)C[C@H]2N1C(=O)Cn1nc(C(N)=O)c2ccccc21)[C@H]1CC1(Cl)Cl` [Example 57, 1-(2-{(1R,3S,5S)-3-[(R)-1-((R)-2,2-Dichloro-cyclopropyl)-ethylcarbamoyl]-5-hydroxymethyl-2-aza-bicyclo[3.1.0]hex-2-yl}-2-oxo-ethyl)-1H-indazole-3-carboxylic acid amide] it is 0.017 µM; for `C[C@@H](NC(=O)[C@@H]1C[C@@H](F)CN1C(=O)Cn1nc(C(N)=O)c2ccccc21)[C@H]1CC1(Cl)Cl` [Example 58, 1-(2-{(2S,4R)-2-[(R)-1-((R)-2,2-Dichloro-cyclopropyl)-ethylcarbamoyl]-4-fluoro-pyrrolidin-1-yl}-2-oxo-ethyl)-1H-indazole-3-carboxylic acid amide] it is 0.039 µM.

For `CO[C@H]1[C@@H](C(=O)N[C@H](C)[C@H]2CC2(Cl)Cl)N(C(=O)Cn2nc(C(N)=O)c3ccccc32)C[C@@H]1F` [Example 59, 1-(2-{(2S,3S,4S)-2-[(R)-1-((R)-2,2-Dichloro-cyclopropyl)-ethylcarbamoyl]-4-fluoro-3-methoxy-pyrrolidin-1-yl}-2-oxo-ethyl)-1H-indazole-3-carboxylic acid amide], the IC50 is 0.014 µM.

Turning to `C[C@@]1(F)C[C@@H](C(=O)NC[C@H]2CC2(Cl)Cl)N(C(=O)Cn2nc(C(N)=O)c3ccccc32)C1` [Example 60, 1-(2-{(2S,4R)-2-[((R)-2,2-Dichloro-cyclopropylmethyl)-carbamoyl]-4-fluoro-4-methyl-pyrrolidin-1-yl}-2-oxo-ethyl)-1H-indazole-3-carboxylic acid amide], the IC50 came to 0.124 µM.

`CC(=O)c1nn(CC(=O)N2[C@@H]3C[C@@H]3C[C@H]2C(=O)N[C@H](C)[C@H]2CC2(Cl)Cl)c2ccc(OCc3ncn(C)n3)cc12` [Example 61, (1R,3S,5R)-2-{2-[3-Acetyl-5-(1-methyl-1H-[1,2,4]triazol-3-ylmethoxy)-indazol-1-yl]-acetyl}-2-aza-bicyclo[3.1.0]hexane-3-carboxylic acid [(R)-1-((R)-2,2-dichloro-cyclopropyl)-ethyl]-amide]: the IC50 was determined as 0.003 µM. Take `CC(=O)c1nn(CC(=O)N2[C@@H]3C[C@@H]3C[C@H]2C(=O)NCC2CC(F)(F)C2)c2ccc(OCc3ncccn3)cc12` [Example 62, (1R,3S,5R)-2-{2-[3-Acetyl-5-(pyrimidin-2-ylmethoxy)-indazol-1-yl]-acetyl}-2-aza-bicyclo[3.1.0] hexane-3-carboxylic acid (3,3-difluoro-cyclobutylmethyl)-amide]: the IC50 was found to be 0.162 µM.

With `CC(=O)c1nn(CC(=O)N2[C@@H]3C[C@@H]3C[C@H]2C(=O)N[C@H](C)[C@H]2CC2(Cl)Cl)c2ccc(OCc3cc(C)[nH]n3)cc12` [Example 64, (1R,3S,5R)-2-{2-[3-Acetyl-5-(5-methyl-1H-pyrazol-3-ylmethoxy)-indazol-1-yl]-acetyl}-2-aza-bicyclo[3.1.0]hexane-3-carboxylic acid [(R)-1-((R)-2,2-dichloro-cyclopropyl)-ethyl]-amide], the IC50 was found to be 0.003 µM.

Turning to `CC(=O)c1nn(CC(=O)N2[C@@H]3C[C@@H]3C[C@H]2C(=O)N[C@H](C)[C@H]2CC2(Cl)Cl)c2ccc(OCc3ccn(C)n3)cc12` [Example 66, (1R,3S,5R)-2-{2-[3-Acetyl-5-(1-methyl-1H-pyrazol-3-ylmethoxy)-indazol-1-yl]-acetyl}-2-aza-bicyclo[3.1.0]hexane-3-carboxylic acid [(R)-1-((R)-2,2-dichloro-cyclopropyl)-ethyl]-amide], the IC50 worked out at 0.004 µM.

Values taken from patent US9468661B2, “Pyrrolidine derivatives and their use as complement pathway modulators” (priority 2012, dated 2016).
